What was measured:
[1] = system: hTERT core promoter E-box Mut construct; test: Luciferase assay, pGL3-E-box mutant in MCF7 cells; type: cell-based, human; settings: 24 h
Description: Luciferase assay. From gDNA extracted from HeLa cells, the hTERT core promoter region, including −350 bp to +12 from the transcription start site, was amplified using a pair of primers, including KpnI and NheI restriction sites, for cloning of pGL3-hTERT with WT promoter sequence. Mutant constructs were generated by PCR-based site-directed mutagenesis. The sequence of each construct was confirmed by sequencing analysis. MCF7 cells in 24-well plate were transfected with 200 ng of pGL3 construct and 5 ng of pRL-TK by Fugene® HD Transfection Reagent and then incubated for 6 h. Media were replaced by fresh ones and the cells were treated with GTC365 or BRACO-19. The same volume of DMSO served as a control. […]
Since MYC is a key transcription factor for activation of the hTERT gene by binding to an E-box in the hTERT promoter region and is one of the oncogenes having a G-quadruplex structure in the promoter region, it was important to confirm that GTC365 affects the repression of hTERT promoter activity directly by binding to the G-quadruplex structure formed in the hTERT promoter and not by binding to the G-quadruplex in the MYC promoter. To distinguish between these possibilities, the luciferase activity of the pGL3-WT and pGL3-E-box mutant constructs were determined after treatment with GTC365. […]

WT 5-12 G-quadruplex = test: CD kinetics, temperature-jump, WT; type: biochemical, human; settings: 2 equiv
Description: FIGS. 10A and 10B are a set of graphs showing (A) comparison of kinetics of initial folding rate of the WT 5-12 G-quadruplex with GTC365 and BRACO-19 by the temperature-jump method. (B) Enhanced initial folding rate of the 5-12 G-quadruplexes carrying different hTERT mutants by GTC365. The time-course CD signal of preheated oligo with compound or DMSO in a buffer containing 10 mM Tris-HCl (pH 7.5) and 5 mM KCl was monitored at 262 nm and 25° C.
For the kinetics analysis using the temperature-jump method, theoligo in a buffer containing 10 mM Tris-HCl (pH 7.5) was heated forl min at 95° C., and then a mixture of KCl and compound was addedand incubated for 1 min. Meanwhile, the CD cuvette was also heatedat 95° C. As soon as the sample in the CD cuvette at the hightemperature was placed in the CD chamber, a time-dependent CDsignal at 262 nm was recorded immediately. The initial folding ratewas determined by one-phase association curve fitting (eq 1) of thekinetics curve using GraphPad Prism 5: Y=Y0+(Plateau−Y0)*(1−e^−kx) (1) where Y is the CD signal at any time point x, Y0 is the Y value whentime (x) is zero, plateau is the Y value at infinite time, and k is the rateconstant.
To evaluate the comparative effects of GTC365 relative to BRACO-19 on the cooperative folding process, we carried out two different experiments. First, we compared the distribution of the different populations of small and large species using single-molecule experiments as described previously withGTC365 and BRACO-19 in the G138/139A mutant. Similar to the G124/125A mutant, the population of fully folded structures is small in the G138/139A mutant without addition of ligand. […] We then used a temperature-jump method84to compare the initial folding rate of the 5-12 WT G-quadruplex with GTC365 and BRACO-19 using a time-course CD signal curve. […] GTC365 alsoincreased the initial folding rates of G124A, G124/125A, andG146A in a dose-dependent manner by 0.049, 0.042, and 0.054s^−1 at 2 equiv, whereas the effect on the G138/139A mutant was insignificant (FIG. 10B). […]

[2] = system: telomere length in MCF7 cells; test: Telomere length assay (qPCR) in MCF7 cells; type: cell-based, human; settings: 0.5 μM
Description: Telomere length assay. MCF7 cells were treated with DMSO, GTC365 for 5-10 days, or BRACO-19 for 25-30 days. Meanwhile, cells were subcultured to maintain <90% confluent. Cells were collected by cell scraper and then subjected to gDNA extraction by DNA extraction kit (Qiagen). Ten ng of gDNA was used for SYBR Green I-based qPCR assay with 1 M betaine, 700 nM telomere primers, and 200 nM 36B4 single-copy gene. A pair of Tel1 and Tel2 was used for amplification of the telomere region and a pair of 36B4F and 36B4R for amplification of a single-copy gene to normalize data. The PCR was initiated at 95° C. for 3 min and then 27 cycles at 95° C. for 3 sec and 60° C. for 2 min. The fluorescence signal at 60° C. was acquired. Triplicate data was averaged and normalized to 36B4 to obtain ΔCt. The relative telomere length was determined compared to the DMSO.
hTERT-positive MCF7 breast cancer cell lines were used to gain mechanistic insight into how the GTC365-induced inhibition of proliferation occurs. Change in relative telomere length by GTC365 was measured by qPCR with gDNA extracted from GTC365-treated MCF7 cells. After 10 days of treatment GTC365 decreased telomere length in a dose-dependent manner, and at a dose of 0.5 μM, the telomere length was reduced by 20%. In contrast, BRACO-19 reduced telomere length by ˜12% at the same concentration but required 25-30 days of treatment (FIG. 9).

Row | Structure (SMILES) | luciferase activity [1] | increase of initial folding rate (WT 5-12 G-quadruplex) [s⁻¹] | initial folding rate (WT 5-12 G-quadruplex; without compound 0.051, 5 mM KCl, 25° C.) [s⁻¹] | reduction of telomere length ([2]; 10 days) [%] | reduction of telomere length ([2]; 25-30 days) [%]
1 | N=C(N)NCCCS(=O)(=O)Nc1ccc(Nc2c3ccccc3nc3cc([N+](=O)[O-])ccc23)cc1 [GTC365] | dose-dependent decrease | 0.042 | 0.093 | 20 | –
2 | CN(C)c1ccc(Nc2c3ccc(NC(=O)CCN4CCCC4)cc3nc3cc(NC(=O)CCN4CCCC4)ccc23)cc1 [BRACO-19, reference compound] | failed to reduce | 0.017 | – | – | ~12
